Drawing on patent publication US4713486A, “Novel compounds” (Beecham Group p.l.c., priority 1982, dated 1987), this text covers IC50 and inhibition for 26 molecules.

One experiment deals with T1, soybean lipoxygenase (Glycine max, UniProt P08170).
T1 sequence (P08170 1-839): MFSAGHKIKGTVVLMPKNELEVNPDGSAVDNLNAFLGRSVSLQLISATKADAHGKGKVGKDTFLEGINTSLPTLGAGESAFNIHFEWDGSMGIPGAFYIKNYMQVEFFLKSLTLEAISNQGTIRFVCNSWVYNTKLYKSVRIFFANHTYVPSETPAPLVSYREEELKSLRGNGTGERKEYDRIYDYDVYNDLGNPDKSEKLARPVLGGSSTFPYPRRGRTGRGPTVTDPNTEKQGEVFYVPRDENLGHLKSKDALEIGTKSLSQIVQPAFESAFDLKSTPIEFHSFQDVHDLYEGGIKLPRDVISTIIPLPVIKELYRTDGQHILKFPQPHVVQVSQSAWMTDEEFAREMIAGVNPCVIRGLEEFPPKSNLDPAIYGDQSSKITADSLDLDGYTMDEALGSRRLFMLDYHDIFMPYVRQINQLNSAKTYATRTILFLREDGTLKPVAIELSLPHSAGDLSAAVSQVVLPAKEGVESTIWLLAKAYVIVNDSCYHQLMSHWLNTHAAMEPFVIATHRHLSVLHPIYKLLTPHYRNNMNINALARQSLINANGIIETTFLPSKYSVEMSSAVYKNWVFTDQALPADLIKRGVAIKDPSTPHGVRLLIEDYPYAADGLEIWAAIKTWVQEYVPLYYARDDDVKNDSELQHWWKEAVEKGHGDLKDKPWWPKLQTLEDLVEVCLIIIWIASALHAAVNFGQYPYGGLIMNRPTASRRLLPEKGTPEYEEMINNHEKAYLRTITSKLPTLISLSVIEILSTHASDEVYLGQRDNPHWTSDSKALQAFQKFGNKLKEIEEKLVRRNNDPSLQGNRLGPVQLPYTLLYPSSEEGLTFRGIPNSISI
The experiment is described as follows: Lipoxygenase Screen: inhibition of soybean lipoxygenase activity. The conditions noted are these: 25° C., pH 9.0, 1000 I.U. soybean lipoxygenase, 0.017 mM arachidonic acid, 5 min preincubation; range in parentheses not explained; Example 9 as N-methylglucamine salt. Type of experiment: biochemical. The method, then:
Inhibition of lipoxygenase activity was measured at 25° C. in a buffered incubation system (0.2M sodium borate, pH 9.0) comprising 1000 I.U. soybean lipoxygenase, 0.017 mM arachidonic acid, and compound (0-0.050 mM, dissolved in absolute ethanol:0.9% w/v saline, 30:70 v/v) in a total volume of 2.5 ml. Enzyme and compound were preincubated together at 25° C. for 5 minutes prior to initiation of the lipoxygenase reaction by the addition of the arachidonic acid. Lipoxygenase activity was measured as the rate of the initial increase in absorbance at 235 nm due to the formation of peroxidised forms of arachidonic acid. Inhibitory activity was measured at at least three compound concentrations and the 50% inhibitory concentration determined from the plot of % inhibition versus compound concentration.

Another experiment has as its target T2, cyclo-oxygenase (Bos taurus, UniProt O62664).
T2 construct: lyophilised bovine seminal vesicle microsomes; from tissue; host or cells: bovine seminal vesicle microsomes
T2 sequence (O62664 25-600): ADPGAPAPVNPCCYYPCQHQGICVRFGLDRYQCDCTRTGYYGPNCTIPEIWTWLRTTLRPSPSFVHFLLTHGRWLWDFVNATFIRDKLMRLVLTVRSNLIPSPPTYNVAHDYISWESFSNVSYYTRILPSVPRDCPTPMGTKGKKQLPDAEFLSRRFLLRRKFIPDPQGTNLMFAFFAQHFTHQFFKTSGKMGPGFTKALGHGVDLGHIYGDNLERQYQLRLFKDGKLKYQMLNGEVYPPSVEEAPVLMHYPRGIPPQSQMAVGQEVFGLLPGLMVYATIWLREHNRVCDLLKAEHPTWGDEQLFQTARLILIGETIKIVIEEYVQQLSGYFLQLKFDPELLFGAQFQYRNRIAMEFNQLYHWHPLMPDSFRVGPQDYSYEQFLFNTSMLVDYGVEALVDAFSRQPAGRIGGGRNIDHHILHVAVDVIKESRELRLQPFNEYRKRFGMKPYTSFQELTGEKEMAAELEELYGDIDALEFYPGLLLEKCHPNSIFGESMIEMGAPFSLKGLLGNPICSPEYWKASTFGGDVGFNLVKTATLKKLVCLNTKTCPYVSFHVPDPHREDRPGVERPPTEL
The experiment is described as follows: Cyclo-oxygenase Screen: inhibition of cyclo-oxygenase in bovine seminal vesicle microsomes. It is filed as biochemical. The note with it: 50 μM compound, pH 8.0, 37° C., 5 min preincubation, 2 min reaction, 5-15 μM arachidonic acid, read-out: Cyclooxygenase Inhibition at 50 μM. Here is the method: (2) Cyclo-oxygenase Screen
The inhibition of cyclo-oxygenase was measured in a buffered incubation (0.2M Tris-HCI, pH 8.0 containing 1 mM ethylene diaminetetraacetic acid) comprising 0.96 mg lyophilised bovine seminal vesicle microsomes, 5-15 μM arachidonic acid containing 0.2 μCi [1--^14 C] arachidonic acid, 2 mM glutathione, […], 1 μM haemoglobin and compound (0-0.05 mM in 5 μl dimethylsulphoxide or absolute ethanol) in a total volume of 2.0 ml. Compounds were preincubated with the incubation constitutents for 5 min at 37° C. before the reaction was started by the addition of the arachidonic acid. The reaction was continued at 37° C. for 2 min, then stopped by placing the incubations on ice and the addition of 1.2 ml 0.2M citric acid. Unmetabolised substrate and prostaglandin products were extracted in ethyl acetate (2×4 ml), the combined extracts washed with 0.8 ml water, and separated by thin-layer chromatography (Kieselgel GF254 plates in ethyl acetate:acetone:glacial acetate acid, 90:10:1, v/v). Recovery was 65-80%. The regions on the thin-layer chromatography plate that chromatographed with authentic arachidonic acid or prostaglandins E2 and F2 α (Rf 's 0.70. 0.28 and 0.16 respectively) were scraped and the radioactivity in each determined by liquid scintillation counting with a correction for quenching being made by the external standard-channels ratio method. Inhibition of cyclo-oxygenase activity was calculated from the decrease in prostaglandin formation. Each compound concentration was tested in triplicate and the 50% inhibitory concentration, if determined, was calculated by linear regression from the inhibitory data at, at least three different compound concentrations.

Consider `CCCCCCCCC/C=C/c1ccc(/C=C/C(=O)O)cc1` [Example 26], for which the IC50 on soybean lipoxygenase worked out at 52.3 µM. Also, the inhibition at 50 µM on cyclo-oxygenase came to 52%.
In the case of `CCCCCCCC/C=C\c1ccccc1OCCCC(=O)O` [Example 82], on cyclo-oxygenase, the inhibition at 50 µM is 72%.
As for `CCCCCCCCCCC/C=C\c1ccccc1/C=C/C(=O)O` [Example 30], at soybean lipoxygenase, the IC50 stood at 23.2 µM. The inhibition at 50 µM at cyclo-oxygenase was found to be 26%.
For the molecule `CCCCCCCCCC/C=C\c1ccc(OCCC(=O)O)cc1` [Example 90], the IC50 on soybean lipoxygenase was 75.3 µM.
Take `CCCCCCCCCCCC#Cc1ccc(/C=C/C(=O)O)cc1` [Example 9, 4-(1-Tridecynyl)cinnamic acid]: the IC50 at soybean lipoxygenase came to 272 µM.
`CCCCCCCCCCC/C=C\c1ccc(/C=C/C(=O)O)cc1` [Example 25]: the IC50 at soybean lipoxygenase is 35.9 µM. Further, the inhibition at 50 µM at cyclo-oxygenase turned out to be 25.6%.
As to `CCCCCCCCCCCC#Cc1ccc(/C=C/C(=O)OC)cc1` [Example 4, Methyl 4-(1-tridecynyl)cinnamate], the IC50 at soybean lipoxygenase is 142 µM.
For the molecule `CCCCCCCCCCC/C=C\c1cccc(/C=C/C(=O)O)c1` [Example 31], the inhibition at 50 µM at cyclo-oxygenase came to 91%.
Turning to `CCCCCCCCCCCC#Cc1ccccc1/C=C/C(=O)O` [Example 12], the IC50 on soybean lipoxygenase is 85.7 µM. For the same molecule, the inhibition at 50 µM on cyclo-oxygenase was 86.5%.
`CCCCCCCCC/C=C\c1ccc(/C=C/C(=O)O)cc1` [Example 27]: on soybean lipoxygenase, the IC50 amounted to 46.6 µM. Besides, at cyclo-oxygenase, the inhibition at 50 µM is 70.5%.
Regarding `CCCCCCCCCCCCC/C=C\c1ccc(/C=C/C(=O)O)cc1` [Example 29], the inhibition at 50 µM on cyclo-oxygenase turned out to be 66.5%.
In the case of `CCCCCCCCCCCC#Cc1cccc(/C=C/C(=O)O)c1` [Example 13], the inhibition at 50 µM on cyclo-oxygenase is 79.8%.
`CCCCCCCCCCC/C=C\c1ccc(CCC(=O)O)cc1` [Example 40, 3-{4-[(Z)-1-Tridecenyl]phenyl}propanoic acid]: the inhibition at 50 µM on cyclo-oxygenase turned out to be 67%.
For the molecule `CCCCCCCCCCC/C=C/c1ccc(/C=C/C(=O)O)cc1` [Example 24, 4-[(E)-1-Tridecenyl]cinnamic acid], at soybean lipoxygenase, the IC50 came out at 30 µM. The inhibition at 50 µM at cyclo-oxygenase was 52%.
On to `CCCCCCCCCCC/C=C\c1ccccc1OCC(=O)O` [Example 60, (Z) 2-[2-(1-tridecenyl)-phenoxy]ethanoic acid], for which the inhibition at 50 µM on cyclo-oxygenase was 92.4%.
Same read-out and setting: the figure for `CCCCCCCCCCC/C=C/c1ccccc1OCCCCC(=O)O` [Example 87] is 67%.
As for `CCCCCCCCCCC/C=C\c1ccc(/C=C/C(=O)OC)cc1` [Example 15, Methyl 4-[(Z)-1-tridecenyl]cinnamate], on soybean lipoxygenase, the IC50 stood at 230 µM.
As to `CCCCCCCCCCC/C=C/c1ccccc1OCCCC(=O)O` [Example 85], the inhibition at 50 µM at cyclo-oxygenase came to 64%.
For `CCCCCCCCCCC/C=C\c1ccccc1OCCCC(=O)OCC` [Example 55, (Z) Ethyl 4-[2-(1-tridecenyl)phenoxy)-butanoate], the IC50 on soybean lipoxygenase was 55.4 µM.
In the case of `CCCCCCCCCCC/C=C\c1ccc(OCC(=O)O)cc1` [Example 89], the concentration for half-maximal inhibition (IC50) on soybean lipoxygenase was 124 µM. For the same molecule, the inhibition at 50 µM at cyclo-oxygenase turned out to be 51%.
`CCCCCCCCCCC/C=C\c1ccccc1OCCCC(=O)O` [Example 62, (Z) 4-[2-(1-tridecenyl)phenoxy]-butanoic acid]: the IC50 at soybean lipoxygenase came out at 4.2 µM. For the same molecule, the inhibition at 50 µM on cyclo-oxygenase was determined as 67%.
In the case of `CCCCCCCCC/C=C\c1ccc(OCCCC(=O)O)cc1` [Example 92], the IC50 at soybean lipoxygenase amounted to 42.8 µM.
Turning to `CCCCCCCCCCCC#Cc1ccccc1CCC(=O)O` [Example 42, 3[2-(1-Tridecynyl)phenyl]propanoic acid], the IC50 on soybean lipoxygenase amounted to 20 µM. Besides, the inhibition at 50 µM at cyclo-oxygenase stood at 80%.
With `CCCCCCCCCCC/C=C\c1ccccc1OCCC(=O)O` [Example 61, (Z) 3-[2-(1-tridecenyl)phenoxy]-propanoic acid], at cyclo-oxygenase, the inhibition at 50 µM was 78.9%.
Turning to `CCCCCCCCCCC/C=C/c1ccc(CCC(=O)O)cc1` [Example 41, 3-{4-[(E)-1-Tridecenyl]phenyl}propanoic acid], the inhibition at 50 µM at cyclo-oxygenase was found to be 40%.
With `CCCCCCCCCCC/C=C\c1ccccc1CCC(=O)O` [Example 43, 3-{2-[(Z)-1-Tridecenyl]phenyl}propanoic acid], the half-maximal inhibitory concentration (IC50) at soybean lipoxygenase was found to be 18.4 µM. For the same molecule, the inhibition at 50 µM on cyclo-oxygenase amounted to 62.7%.
